Several values for one entry are separate records, joined by “and”; a condition that tells them apart may be missing. Equal values may be shown once.
Assays:
OCI-Ly3 cells [1] = assay: IL6 and IL10 mRNA, qRT-PCR; format: cell-based, human; conditions: for IL6 and IL10 mRNA levels: OCI-Ly3, 1 μM, 24 hours, result in words; for IL6 mRNA levels (normalized) / IL10 mRNA levels (normalized): Suppl Fig. 5C
Description: Total RNA extraction from cell lines was performed using RNeasy Plus Mini Kit (Qiagen, Cat# 74136). […]
Kit. RNA was transcribed into cDNA using High-Capacity cDNA Reverse Transcription Kit (Applied Biosystems, Cat# 4368814) according to manufacturer’s instructions. RT-PCR was performed using TaqMan Universal PCR Master Mix (Applied Biosystems, Cat# 4304437) and run on a StepOnePlus Real-Time PCR machine (Applied Biosystems). The following probes from ThermoFisher Scientific were used for qRT-PCR: IL2 TaqMan probe Hs00174114, IL6 TaqMan

OCI-Ly3 cells [2] = assay: IL-6 and IL-10 secretion, cytokine ELISA; format: cell-based, human; conditions: for IL-6 and IL-10 secretion: OCI-Ly3, result in words; for IL-6 protein (normalized) / IL-10 protein (normalized): OCI-Ly3 cells, individual replicates n=3
Description: (§1) Cytokine ELISAs. Cytokines in cell culture supernatants were measured 20-24h after treatment with 0, 0.01, 0.03, 0.1, 0.3, 1, or 3 µM of compounds using the following ELISA kits according to the manufacturer’s instructions: Human IL-2 ELISA (BioLegend Cat# 431804), Human IL-6 ELISA (BioLegend Cat# 430504), and Human IL-10 ELISA (BioLegend Cat# 430604). […]

TMD8 cells = assay: IL-6 and IL-10 secretion, cytokine ELISA; format: cell-based, human; conditions: for IL-6 and IL-10 secretion: TMD8, result in words
Description: as §1

OCI-Ly3 cells [3] = assay: Cell proliferation, trypan blue cell count; format: cell-based, human; conditions: OCI-Ly3, single 1 μM dose, 12 days, result in words
Description: Cell proliferation, viability, and apoptosis assays. Starting with ~20,000 DLBCL cells in 5% FBS
at day 0, cell number was counted using the trypan blue dye exclusion method with Vi-CELL cell

OCI-Ly3 cells [4] = assay: cells; parameters: species or system TMD8 or OCI-Ly3; Inhibition of spontaneous IL-10 secretion from ABC-DLBCL cells, human IL-10 ELISA of supernatants; conditions: Homo sapiens, OCI-Ly3, 20 h; IL-10 secretion; read-out: IC50 (µM) IL-10 inhibition
Description: Cytokine ELISAs. Cytokines in cell culture supernatants were measured 20-24h after treatment with 0, 0.01, 0.03, 0.1, 0.3, 1, or 3 µM of compounds using the following ELISA kits according to the manufacturer’s instructions: Human IL-2 ELISA (BioLegend Cat# 431804), Human IL-6 ELISA (BioLegend Cat# 430504), and Human IL-10 ELISA (BioLegend Cat# 430604). TMD8 and OCI-Ly3 cells were treated with specific doses of compounds in serum-free media for 20 hours. Jurkat T cells were pretreated with specific doses of compounds for 8 hours in serum-free media, then stimulated with PMA/ionomycin for 16 hours prior to the collection of supernatants. Mouse splenocytes were isolated from spleens of C57/BL6 mice by passing spleens through a 70 micron filter followed by red blood cell lysis using ACK lysing buffer (Quality Biologics, Cat# 118-156-101). […] Supernatant was collected at 24 hours and mouse IL-2 levels were analyzed via ELISA (R&D Systems, Cat# DY402-05). IL-6 and IL-10 are NF-κB–induced cytokines that promote the proliferation and survival of malignant B cells through both autocrine and paracrine mechanisms ([44]), and are negative prognostic factors in ABC-DLBCL ([45], [46]). ABC-DLBCL cell lines spontaneously secrete substantial levels of IL-6 and IL-10, whereas GCB-DLBCL cell lines express only a negligible amount of these cytokines ([24]). […] The IC50 for inhibition of cytokine secretion by each compound in each cell line is reported in Supplemental Table 1.  Figure 4 M1i-124 and M1i-124d1 inhibit MALT1 protease and scaffolding functions, and MALT1-dependent cytokine secretion, in ABC-DLBCL cells. (A and B) Effect of 1 μM compound pretreatment on constitutive RelB cleavage (A) and IκB phosphorylation (B) within TMD8 cells. Representative Western blots are shown along with quantification (mean ± SEM; n = 2). (C) IL6 and IL10 mRNA levels in TMD8 cells treated with 1 μM M1i-124 or M1i-124d1 (mean ± SEM; n = 6). […] Statistical analyses were performed using 1-way ANOVA and Dunnett’s multiple-comparison test. **P < 0.01, ***P < 0.001, ****P < 0.0001.

Row | Compound | IL6 and IL10 mRNA levels (OCI-Ly3 cells [1]) | IL6 mRNA levels (normalized) (OCI-Ly3 cells [1]) | IL10 mRNA levels (normalized) (OCI-Ly3 cells [1]) | IL-6 and IL-10 secretion (OCI-Ly3 cells [2]) | IL-6 protein (normalized) (OCI-Ly3 cells [2]; dose 0.01 µM) | IL-10 protein (normalized) (OCI-Ly3 cells [2]; dose 0.01 µM) | IL-6 protein (normalized) (OCI-Ly3 cells [2]; dose 0.03 µM) | IL-10 protein (normalized) (OCI-Ly3 cells [2]; dose 0.03 µM) | IL-6 protein (normalized) (OCI-Ly3 cells [2]; dose 0.1 µM) | IL-10 protein (normalized) (OCI-Ly3 cells [2]; dose 0.1 µM) | IL-6 protein (normalized) (OCI-Ly3 cells [2]; dose 0.3 µM) | IL-10 protein (normalized) (OCI-Ly3 cells [2]; dose 0.3 µM) | IL-6 protein (normalized) (OCI-Ly3 cells [2]; dose 1 µM) | IL-10 protein (normalized) (OCI-Ly3 cells [2]; dose 1 µM) | IL-6 protein (normalized) (OCI-Ly3 cells [2]; dose 3 µM) | IL-10 protein (normalized) (OCI-Ly3 cells [2]; dose 3 µM) | IL-6 protein (normalized) (TMD8 cells; TMD8, Dose (µM) 0.01) | IL-10 protein (normalized) (TMD8 cells; TMD8, Dose (µM) 0.01) | IL-6 protein (normalized) (TMD8 cells; TMD8, Dose (µM) 0.03) | IL-10 protein (normalized) (TMD8 cells; TMD8, Dose (µM) 0.03) | also measured
1 | COc1ccc(CNS(=O)(=O)c2ccc(Cc3ccc(S(=O)(=O)NCc4ccc(OC)cc4)cc3)cc2)cc1 [M1i-124d1] | significantly decrease IL6 and IL10 mRNA levels | 0.61 and 0.76 and 0.58 and 0.67 and 0.68 | 0.5473 and 0.5 and 0.74 and 0.4125 and 0.4002 and 0.6402 | dose-dependent reduction of IL-6 and IL-10 secretion | 99.5607 and 97.9207 and 112.031 | 79.7769 and 92.2916 and 96.3976 | 98.1802 and 88.2708 and 79.406 | 92.2982 and 70.1649 and 75.2443 | 82.137 and 88.0559 and 90.8694 | 78.4383 and 79.1463 and 60.8949 | 78.0338 and 77.6618 and 76.9556 | 68.3626 and 76.063 and 76.9269 | 82.5608 and 76.3464 and 79.062 | 58.0215 and 44.447 and 56.2881 | 67.8445 and 70.7121 and 79.6228 | 43.78 and 51.6743 and 38.3491 | 93.5197 and 93.7514 and 94.5387 | 69.769 and 89.382 and 96.8917 | 91.3047 and 88.3022 and 85.704 | 62.2564 and 54.1514 and 73.6549 | IL-6 protein (normalized) (TMD8 cells; TMD8, Dose (µM) 0.1): 77.5452 and 70.6916 and 62.4629; IL-10 protein (normalized) (TMD8 cells; TMD8, Dose (µM) 0.1): 60.4815 and 45.5606 and 38.3417; IL-6 protein (normalized) (TMD8 cells; TMD8, Dose (µM) 0.3): 55.6968 and 55.4486 and 52.1775; IL-10 protein (normalized) (TMD8 cells; TMD8, Dose (µM) 0.3): 40.1613 and 36.3491 and 28.9939; IL-6 protein (normalized) (TMD8 cells; TMD8, Dose (µM) 1): 45.5895 and 45.5473 and 39.027; IL-10 protein (normalized) (TMD8 cells; TMD8, Dose (µM) 1): 29.9544 and 27.9974 and 29.4587; IL-6 protein (normalized) (TMD8 cells; TMD8, Dose (µM) 3): 41.6763 and 36.3341 and 29.5994; IL-10 protein (normalized) (TMD8 cells; TMD8, Dose (µM) 3): 27.5683 and 24.6599 and 35.0793; IL-6 and IL-10 secretion (TMD8 cells): dose-dependent reduction of IL-6 and IL-10 secretion; expansion of culture (proliferation) (OCI-Ly3 cells [3]): significant reduction in the expansion; IC50 (OCI-Ly3 cells [4]): 2.2 µM
2 | O=S(=O)(NCc1ccc2c(c1)OCO2)c1ccc(Cc2ccc(S(=O)(=O)NCc3ccc4c(c3)OCO4)cc2)cc1 [M1i-124] | significantly decrease IL6 and IL10 mRNA levels | 0.63 and 0.57 and 0.56 and 0.54 and 0.48 and 0.61 | 0.7074 and 0.77 and 0.73 and 0.8 and 0.4913 and 0.4249 and 0.7438 | dose-dependent reduction of IL-6 and IL-10 secretion | 107.046 and 97.7137 and 87.0295 | 103.16 and 104.534 and 97.5052 | 96.5093 and 109.876 and 83.6147 | 91.281 and 93.6459 and 78.8249 | 75.4106 and 89.2481 and 95.3244 | 87.8156 and 90.4046 and 87.8267 | 61.7285 and 64.3367 and 64.4209 | 53.7308 and 68.0081 and 65.3126 | 45.5755 and 29.5412 and 43.2472 | 42.8574 and 34.5822 and 37.4365 | 32.8587 and 36.4245 and 37.9702 | 27.1129 and 25.9246 and 27.6249 | 95.9364 and 102.213 and 93.8323 | 92.0215 and 104.795 and 93.5401 | 87.0698 and 93.9663 and 88.6054 | 92.6437 and 90.5031 and 81.0478 | IC50 (TMD8 cells; Homo sapiens, cell-based assays measuring functional MALT1 inhibition, span over cytokines and cell lines (TMD8, OCI-Ly3; Supplemental Table 1)): 500 to 1300 nM; IL-6 protein (normalized) (TMD8 cells; TMD8, Dose (µM) 0.1): 69.9434 and 74.7992 and 78.3531; IL-10 protein (normalized) (TMD8 cells; TMD8, Dose (µM) 0.1): 68.4368 and 67.4137 and 68.4567; IL-6 protein (normalized) (TMD8 cells; TMD8, Dose (µM) 0.3): 69.7251 and 64.7937 and 50.8437; IL-10 protein (normalized) (TMD8 cells; TMD8, Dose (µM) 0.3): 56.1427 and 56.6527 and 44.4473; IL-6 protein (normalized) (TMD8 cells; TMD8, Dose (µM) 1): 36.3116 and 40.2609 and 34.3135; IL-10 protein (normalized) (TMD8 cells; TMD8, Dose (µM) 1): 37.7839 and 38.0405 and 34.7537; IL-6 protein (normalized) (TMD8 cells; TMD8, Dose (µM) 3): 26.8371 and 27.7392 and 25.9151; IL-10 protein (normalized) (TMD8 cells; TMD8, Dose (µM) 3): 23.1611 and 23.3192 and 20.6767; IL-6 and IL-10 secretion (TMD8 cells): dose-dependent reduction of IL-6 and IL-10 secretion; expansion of culture (proliferation) (OCI-Ly3 cells [3]): significant reduction in the expansion; IC50 (OCI-Ly3 cells [4]): 0.7 µM
